According to patent US20240199546A1, “INHIBITORS OF SOLUTE CARRIER FAMILY 6A MEMBER 19 (SLC6A19) AND METHODS OF USE THEREOF” (Maze Therapeutics, Inc., priority 2022, published 2024):

Target: T1, human SLC6A19 and TMEM27 (Homo sapiens, UniProt Q695T7)
T1 construct: expressed in transfected cells
T1 sequence (Q695T7 1-634): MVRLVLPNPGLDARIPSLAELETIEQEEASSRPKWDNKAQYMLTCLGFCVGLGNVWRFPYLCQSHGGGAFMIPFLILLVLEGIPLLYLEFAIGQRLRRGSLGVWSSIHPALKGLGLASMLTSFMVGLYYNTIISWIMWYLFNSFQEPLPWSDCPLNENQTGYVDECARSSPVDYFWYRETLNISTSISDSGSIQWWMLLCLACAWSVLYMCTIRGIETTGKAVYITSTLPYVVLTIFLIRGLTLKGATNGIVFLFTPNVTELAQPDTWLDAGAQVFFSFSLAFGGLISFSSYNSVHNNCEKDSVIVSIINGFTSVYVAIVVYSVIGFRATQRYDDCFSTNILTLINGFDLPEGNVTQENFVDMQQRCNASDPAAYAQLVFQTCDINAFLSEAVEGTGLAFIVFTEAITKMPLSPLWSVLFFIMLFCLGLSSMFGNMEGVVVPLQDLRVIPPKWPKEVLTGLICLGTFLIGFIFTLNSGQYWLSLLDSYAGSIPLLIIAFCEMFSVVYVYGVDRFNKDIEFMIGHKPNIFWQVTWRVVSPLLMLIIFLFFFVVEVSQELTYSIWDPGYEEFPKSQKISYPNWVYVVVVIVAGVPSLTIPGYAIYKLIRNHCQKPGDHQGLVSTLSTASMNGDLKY
T1 sequence (Q9HBJ8 15-222 partner): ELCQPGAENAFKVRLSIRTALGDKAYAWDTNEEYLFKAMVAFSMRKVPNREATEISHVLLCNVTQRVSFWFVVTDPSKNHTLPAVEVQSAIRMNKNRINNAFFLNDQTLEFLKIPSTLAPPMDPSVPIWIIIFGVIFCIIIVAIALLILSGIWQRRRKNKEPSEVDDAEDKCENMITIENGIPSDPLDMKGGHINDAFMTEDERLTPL
Assay: Radiolabelled (3H) leucine uptake in CHO cells with doxycycline-inducible expression of human SLC6A19 and TMEM27 (Example B-1)
Type: cell-based
Conditions: CHO cells with doxycycline-inducible expression of human SLC6A19 and TMEM27, read-out: SLC6A19_Radioligand Uptake Assay IC50
How it was run: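 CHO cells were induced with doxycycline for 18 h at 37 °C, washed in HBSS, then exposed to compounds for 1 h: 8-point, 3-fold dilutions in duplicate, 0.5% DMSO final. Uptake measured by scintillation counting after 2 h shaking. Activity normalized with positive control as 0% and DMSO as 100%.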

Row | IC50 | SMILES
1 | 1130 nM | COCCNC(=O)NCc1cc2cc(Cl)c(OCc3cscn3)cc2[nH]1 [Compound 380, 1-((5-chloro-6-(thiazol-4-ylmethoxy)-1H-indol-2-yl)methyl)-3-(2-methoxyethyl)urea]
2 | 336 nM | CC(O)C(=O)NCc1cc2cc(Cl)c(OCc3cscn3)cc2[nH]1 (stereo not shown) [Compound 243, N-((5-chloro-6-(thiazol-4-ylmethoxy)-1H-indol-2-yl)methyl)-2-hydroxypropanamide]
3 | 532 nM | Cc1ccc(COc2cc3[nH]c(CNC(=O)C4(C)CC4)cc3cc2Cl)nc1 [Compound 21, N-((5-chloro-6-((5-methylpyridin-2-yl)methoxy)-1H-indol-2-yl)methyl)-1-methylcyclopropane-1-carboxamide]
4 | 1240 nM | O=C(NCc1cc2cc(Cl)c(OCc3cscn3)cc2[nH]1)N1CC(O)C1 [Compound 367, N-((5-chloro-6-(thiazol-4-ylmethoxy)-1H-indol-2-yl)methyl)-3-hydroxyazetidine-1-carboxamide]
5 | 545 nM | Cc1cc(COc2cc3[nH]c(CNC(=O)C(C)(C)O)cc3cc2Cl)on1 [Compound 249, N-((5-chloro-6-((3-methylisoxazol-5-yl)methoxy)-1H-indol-2-yl)methyl)-2-hydroxy-2-methylpropanamide]
6 | 3260 nM | CNCC(=O)NCc1cc2cc(Cl)c(OCc3cscn3)cc2[nH]1 [Compound 614, N-((5-chloro-6-(thiazol-4-ylmethoxy)-1H-indol-2-yl)methyl)-2-(methylamino)acetamide]
7 | 82.4 nM | CC1(C(=O)NCc2cc3cc(Cl)c(COc4ccon4)cc3[nH]2)CC1 [Compound 613, N-((5-chloro-6-((isoxazol-3-yloxy)methyl)-1H-indol-2-yl)methyl)-1-methylcyclopropane-1-carboxamide]
8 | 358 nM | O=C(NCc1cc2cc(OC(F)(F)F)c(CCc3ccon3)cc2[nH]1)N1CCCC1 [Compound 598, N-((6-(2-(isoxazol-3-yl)ethyl)-5-(trifluoromethoxy)-1H-indol-2-yl)methyl)pyrrolidine-1-carboxamide]
9 | 365 nM | CC1CCN(C(=O)NCc2cc3cc(Cl)c(OCc4ccon4)cc3[nH]2)C1 (stereo not shown) [Compound 87, N-((5-chloro-6-(isoxazol-3-ylmethoxy)-1H-indol-2-yl)methyl)-3-methylpyrrolidine-1-carboxamide]
10 | 627 nM | Cc1cc(COc2cc3[nH]c(CNC(=O)[C@H]4CC[C@@H]4O)cc3cc2Cl)on1 (racemic) [Compound 248, (1R,2R)-N-((5-chloro-6-((3-methylisoxazol-5-yl)methoxy)-1H-indol-2-yl)methyl)-2-hydroxycyclobutane-1-carboxamide and (1S,2S)-N-((5-chloro-6-((3-methylisoxazol-5-yl)methoxy)-1H-indol-2-yl)methyl)-2-hydroxycyclobutane-1-carboxamide]
11 | 175 nM | Cc1cc(COc2cc3[nH]c(CNC(=O)C4COC4)cc3cc2Cl)on1 [Compound 274, N-((5-chloro-6-((3-methylisoxazol-5-yl)methoxy)-1H-indol-2-yl)methyl)oxetane-3-carboxamide]
12 | 149 nM | [2H]C([2H])([2H])C1(C(=O)NCc2cc3cc(F)c(OCc4cscn4)cc3[nH]2)CC1 [Compound 482, N-((5-fluoro-6-(thiazol-4-ylmethoxy)-1H-indol-2-yl)methyl)-1-(methyl-d3)cyclopropane-1-carboxamide]
13 | 983 nM | C[C@H]1CCN1C(=O)NCc1cc2cc(Cl)c(OCc3ccon3)cc2[nH]1 [Compound 362, (S)-N-((5-chloro-6-(isoxazol-3-ylmethoxy)-1H-indol-2-yl)methyl)-2-methylazetidine-1-carboxamide]
14 | 690 nM | COC1CN(C(=O)NCc2cc3cc(Cl)c(OCc4cscn4)cc3[nH]2)C1 [Compound 364, N-((5-chloro-6-(thiazol-4-ylmethoxy)-1H-indol-2-yl)methyl)-3-methoxyazetidine-1-carboxamide]
15 | 327 nM | CC1(C(=O)NCc2cc3cc(F)c(OCc4cscn4)cc3[nH]2)CCC1 [Compound 507, N-((5-fluoro-6-(thiazol-4-ylmethoxy)-1H-indol-2-yl)methyl)-1-methylcyclobutane-1-carboxamide]
16 | 2280 nM | C[C@H](O)C(=O)NCc1cc2cc(F)c(OCc3cscn3)cc2[nH]1 [Compound 281, (S)-N-((5-fluoro-6-(thiazol-4-ylmethoxy)-1H-indol-2-yl)methyl)-2-hydroxypropanamide]
17 | 2140 nM | CC(NC(=O)C1(C)CC1)c1cc2cc(Cl)c(OCc3ccon3)cc2[nH]1 (racemic) [Compound 395, (S)-N-(1-(5-chloro-6-(isoxazol-3-ylmethoxy)-1H-indol-2-yl)ethyl)-1-methylcyclopropane-1-carboxamide and (R)-N-(1-(5-chloro-6-(isoxazol-3-ylmethoxy)-1H-indol-2-yl)ethyl)-1-methylcyclopropane-1-carboxamide]
18 | 2670 nM | Cc1cc(COc2cc3[nH]c(CNC(=O)CC4COC4)cc3cc2Cl)on1 [Compound 258, N-((5-chloro-6-((3-methylisoxazol-5-yl)methoxy)-1H-indol-2-yl)methyl)-2-(oxetan-3-yl)acetamide]
19 | 2020 nM | Cc1cc(COc2cc3[nH]c(CNC(=O)C[C@@H]4CCOC4)cc3cc2Cl)on1 [Compound 289, (S)-N-((5-chloro-6-((3-methylisoxazol-5-yl)methoxy)-1H-indol-2-yl)methyl)-2-(tetrahydrofuran-3-yl)acetamide]
20 | 756 nM | C[C@@H](O)C(=O)NCc1cc2cc(Cl)c(OCc3cscn3)cc2[nH]1 [Compound 257, (R)-N-((5-chloro-6-(thiazol-4-ylmethoxy)-1H-indol-2-yl)methyl)-2-hydroxypropanamide]
21 | 1050 nM | CCc1cc(COc2ccc3cc(CNC(=O)C4(C)CC4)[nH]c3c2)no1 [Compound 185, N-((6-((5-ethylisoxazol-3-yl)methoxy)-1H-indol-2-yl)methyl)-1-methylcyclopropane-1-carboxamide]
22 | 383 nM | COCC1(C(=O)NCc2cc3cc(Cl)c(OCc4cscn4)cc3[nH]2)CC1 [Compound 279, N-((5-chloro-6-(thiazol-4-ylmethoxy)-1H-indol-2-yl)methyl)-1-(methoxymethyl)cyclopropane-1-carboxamide]
23 | 375 nM | Cc1cnc(COc2cc3[nH]c(CNC(=O)N4CCCC4)cc3cc2Cl)o1 [Compound 120, N-((5-chloro-6-((5-methyloxazol-2-yl)methoxy)-1H-indol-2-yl)methyl)pyrrolidine-1-carboxamide]
24 | 477 nM | O=C(NCc1cc2cc(F)c(OCc3ccon3)cc2[nH]1)N1CCCCC1 [Compound 88, N-((5-fluoro-6-(isoxazol-3-ylmethoxy)-1H-indol-2-yl)methyl)piperidine-1-carboxamide]
25 | 336 nM | O=C(NCc1cc2cc(OC(F)(F)F)c(CCc3cscn3)cc2[nH]1)N1CCC1 [Compound 596, N-((6-(2-(thiazol-4-yl)ethyl)-5-(trifluoromethoxy)-1H-indol-2-yl)methyl)azetidine-1-carboxamide]
26 | 87 nM | CC(=O)NCc1cc2cc(Cl)c(OCc3cscn3)cc2[nH]1 [Compound 141, N-((5-chloro-6-(thiazol-4-ylmethoxy)-1H-indol-2-yl)methyl)acetamide]
27 | 88.9 nM | O=C(CC(F)F)NCc1cc2cc(F)c(OCc3cscn3)cc2[nH]1 [Compound 516, 3,3-difluoro-N-((5-fluoro-6-(thiazol-4-ylmethoxy)-1H-indol-2-yl)methyl)propanamide]
28 | 1020 nM | CC[C@@H](O)C(=O)NCc1cc2cc(Cl)c(OCc3cc(C)no3)cc2[nH]1 [Compound 241, (R)-N-((5-chloro-6-((3-methylisoxazol-5-yl)methoxy)-1H-indol-2-yl)methyl)-2-hydroxybutanamide]
29 | 83.3 nM | [2H]C([2H])([2H])C(=O)NCc1cc2cc(Cl)c(OCc3cc(C)no3)cc2[nH]1 [Compound 562, N-((5-chloro-6-((3-methylisoxazol-5-yl)methoxy)-1H-indol-2-yl)methyl)acetamide-2,2,2-d3]
30 | 86.1 nM | CC(F)C(=O)NCc1cc2cc(Cl)c(OCc3cscn3)cc2[nH]1 (racemic) [Compound 511, (R)-N-((5-chloro-6-(thiazol-4-ylmethoxy)-1H-indol-2-yl)methyl)-2-fluoropropanamide and (S)-N-((5-chloro-6-(thiazol-4-ylmethoxy)-1H-indol-2-yl)methyl)-2-fluoropropanamide]

Row | SMILES | IC50
31 | CC(=O)NCc1cc2cc(Cl)c(OCCOC3CCC3)cc2[nH]1 [Compound 456, N-((5-chloro-6-(2-cyclobutoxyethoxy)-1H-indol-2-yl)methyl)acetamide] | 4260 nM
